In experiment [1] the test system is Th17 cells. The experiment is described as follows: Differentiation inhibition experiments on Th17 cells (IL-17A content in supernatant by ELISA). The format is cell-based, C57 mouse. The settings on record: 1 μM compound; differentiation of mouse naïve CD4+ T cells to Th17, IL-17A ELISA; read-out: Inhibition Rate (1 μM). The method, then: 5 μg/mL mouse CD3 antibody (purchased from BD) was coated on a 96-well plate (37° C., 2-6 hours) and stored for future use. C57 mouse lymph gland naïve CD4 positive T cells were separated using CD4+ T cell isolation kit II (purchased from MACS), and were inoculated to the coated 96-well plate at 5×10^5 cells/well/100 μL. The test sample was gradient diluted with RMPI-1640 culture medium (Gibco, 22440), and was made to be 4 times of the final concentration (starting from 1 μM, 10 times dilution, setting 6 drug concentrations). The diluted test sample was added at 50 μL/well to the test well inoculated with cells. To each of the positive and negative control wells was added 50 μL RMPI-1640 culture medium. To each of the test wells and the positive control wells was further added 50 μL mixed solution of activators (20 ug/mL mouse CD28 antibody (purchased from BD); 40 ug/mL mouse IL-4 antibody (purchased from BD); 40 ug/mL mouse IFNγ antibody (purchased from BD); 4 ng/mL mouse TGF-β1 (purchased from R&D); 200 ng/mL mouse IL-6 (purchased from R&D); 20 ng/mL mouse IL-23 (purchased from R&D)) having a 4-fold final concentration; to the negative control well was added 50 μL RMPI-1640 culture medium. The loaded 96-well plate was placed in an incubator at 37° C., 5% CO2 and was cultured for 66 hours, followed by adding to each well 50 uL mixed solution of PMA (purchased from Sigma, working concentration: 50 ng/mL) and Ionomycin (purchased from Sigma, working concentration: 1 ug/mL), and culturing at 37° C. for another 6 hours. After the culture was completed, a cell culture supernatant was taken, and the IL-17A content in the supernatant was determined using mouse IL-17A ELISA kit (purchased from Dakewe), and the inhibition rate and the IC50 value were calculated. The specific operation followed the kit specification (see below):
(1) Determining the number of required strips according to the number of the test wells (blank and standard); taking out the Washing buffer (50×) and the ready-to-use solution from the kit 20 min in advance to balance to room temperature.
(2) Loading samples: adding diluted Cytokine standard to the standard well at 100 μL/well, adding the sample to the sample well at 100 μL/well, setting a blank well, in which Dilution buffer R (1×) was used instead of the sample and the standard.
(3) Adding testing antibody: adding diluted Biotinylated antibody at 50 μL/well; covering with a sealing film after mixing uniformly, and incubating at 37° C. for 90 min.
(4) Washing the plate: deducting the liquid in the well, adding 1× washing buffer at 300 μL/well; maintain for 1 min, then discarding the liquid in the well; repeating 4 times, each time deducting to dryness on filter pater.
(5) Adding enzyme: adding diluted Streptavidin-HRP at 100 μL/well; covering with a sealing film, and incubating at 37° C. for 30 min.
(6) Washing the plate: repeating […].
(7) Color development: adding TMB at 100 μL/well, incubating at 37° C. in a dark place for 5-30 min, and determining to terminate the reaction according to the depth of the color in the well (dark blue). Normally, a good effect can be achieved by color development for 10-20 min.
(8) Terminating the reaction: rapidly adding a stop solution at 100 μL/well to terminate the reaction.
Reading the plate: 10 min after termination, reading the value using a measurement wavelength of 450 nm.
In general terms: ELISA stands for enzyme-linked immunosorbent assay.

Experiment [2] deals with RORγ-LBD (Homo sapiens (Human), UniProt P51449). Put plainly: LanthaScreen TR-FRET screening of RORγ-LBD / co-activator (Fluorescein-D22) interaction. Particulars: read-out: IC50 Values; TR-FRET, 2 nM RORγ-LBD, 150 nM Fluorescein-D22 co-activator. In general terms: In TR-FRET formats the signal depends on donor and acceptor labels being close together.

As usually defined, the inhibition is the drop in the measured response relative to a control, in per cent. What is called IC50 is the concentration needed to halve the response being measured.

Bounds are passed on as bounds.

Sequence of RORγ-LBD (P51449 269-508): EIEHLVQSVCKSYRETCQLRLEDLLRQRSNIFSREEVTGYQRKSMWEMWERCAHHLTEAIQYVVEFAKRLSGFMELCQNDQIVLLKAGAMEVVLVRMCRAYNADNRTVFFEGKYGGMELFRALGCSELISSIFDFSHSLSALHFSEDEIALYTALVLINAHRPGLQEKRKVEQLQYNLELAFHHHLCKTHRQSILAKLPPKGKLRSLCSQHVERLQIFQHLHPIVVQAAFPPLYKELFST

For the compound `O=C(O)c1ccc(N2C(=O)/C(=C\c3c(Cl)cccc3Cl)c3c(F)cccc32)cc1` [Example 15A, (trans)-4-(3-(2,6-dichloro-benzylidene)-4-fluoro-indolin-2-on-1-yl)-benzoic acid], in experiment [1], the inhibition at 1 µM was more than 50%. Further, the IC50 in experiment [2] was less than 0.1 µM.
On to `O=C(O)c1ccc(N2C(=O)/C(=C/c3c(Cl)cccc3C3CC3)c3c(F)cccc32)cc1` [Example 16B, (cis)-4-(3-(2-chloro-6-cyclopropyl-benzylidene)-4-fluoro-indolin-2-on-1-yl)-benzoic acid], for which, in experiment [1], the inhibition at 1 µM was more than 50%. Besides, the IC50 in experiment [2] is less than 0.1 µM.
With `COc1cccc(Cl)c1/C=C1\C(=O)N(c2ccc(C(=O)O)c(O)c2)c2cccc(C)c21` [Example 3, (trans)-4-(3-(2-chloro-6-methoxy-benzylidene)-4-methylindolin-2-on-1-yl)-2-hydroxybenzoic acid], the inhibition at 1 µM in experiment [1] is more than 50%. The IC50 in experiment [2] was less than 0.1 µM.
As for `Cc1cccc2c1/C(=C/c1c(Cl)cccc1C1CC1)C(=O)N2c1ccc(C(=O)O)c(O)c1` [Example 1, (trans)-4-(3-(2-chloro-6-cyclopropyl-benzylidene)-4-methylindolin-2-on-1-yl)-2-hydroxy benzoic acid], in experiment [1], the inhibition at 1 µM was more than 50%. The IC50 in experiment [2] is less than 0.1 µM.
For the compound `O=C(O)c1ccc(N2C(=O)/C(=C/c3c(Cl)cccc3Cl)c3c(F)cccc32)cc1` [Example 15B, (cis)-4-(3-(2,6-dichloro-benzylidene)-4-fluoro-indolin-2-on-1-yl)-benzoic acid], in experiment [1], the inhibition at 1 µM is less than 50%. For the same compound, the IC50 in experiment [2] was less than 0.1 µM.
On to `Cc1cccc2c1/C(=C/c1c(Cl)cccc1Cl)C(=O)N2c1ccc(C(=O)O)c(O)c1` [Example 4, (trans)-4-(3-(2,6-dichloro-benzylidene)-4-methylindolin-2-on-1-yl)-2-hydroxybenzoic acid], for which the inhibition at 1 µM in experiment [1] was more than 50%. Moreover, the IC50 in experiment [2] was less than 0.1 µM.
For `Cc1cccc(Cl)c1/C=C1\C(=O)N(c2ccc(C(=O)O)c(O)c2)c2cccc(C)c21` [Example 10, (trans)-4-(3-(2-chloro-6-methyl-benzylidene)-4-methylindolin-2-on-1-yl)-2-hydroxybenzoic acid], the inhibition at 1 µM in experiment [1] is more than 50%. In experiment [2], the IC50 is less than 0.1 µM.
For the compound `Cc1cccc2c1/C(=C/c1c(Cl)cccc1C1CC1)C(=O)N2c1ccc(C(=O)O)cc1` [Example 2A, (trans)-4-(3-(2-chloro-6-cyclopropyl-benzylidene)-4-methylindolin-2-on-1-yl)-benzoic acid], in experiment [1], the inhibition at 1 µM is more than 50%. Besides, the 50% inhibitory concentration (IC50) in experiment [2] is less than 0.1 µM.
